Reference: publication PMC12566723, “Boronic Derivatives of Thiosemicarbazones as Tyrosinase Inhibitors” (Pharmaceutics, 2025)
pIC50: −log10 of the molar value. Structures can show the parent of a compound that is named as a salt.

Columns and labels:
[1] = test system: MCF-10A; experiment: Antiproliferative activity by sulforhodamine B assay, MCF-10A; format: cell-based; conditions: for pIC50: 72 h, SRB; for inhibition at 100 µM: read-out: proliferation inhibition at 100µM (reported if IC50 > 100 µM), 100 µM, 72 h, SRB
Protocol: (§1) Cell lines. The Hs-294T (HTB-140), MCF-10A, and SK-MEL-3 (HTB-69) cell lines were purchased from the American Type Culture Collection (ATCC; Rockville, MD, USA). The KU-19-19 was purchased from Leibniz Institute DSMZ-German Collection of Microorganisms and Cell Cultures GmbH (Braunschweig, Germany). Hs-294T, SK-MEL-3, and KU-19-19 (ACC 395) cell lines were cultured in Dulbecco’s Modified Eagle Medium (DMEM; Biowest, Nuaille, France) supplemented with 10% (v/v) fetal bovine serum (FBS; GE Healthcare HyClone, Logan, UT, USA), 2 mM L-glutamine (Sigma-Aldrich, Poznań, Poland). The MCF-10A cell line was cultured in Ham’s F12 medium with glutamine (Corning Costar, Warsaw, Poland) supplemented with 5% (v/v) FBS, 5% (v/v) horse serum, 10 µg/mL insulin, 0.05 µg/mL cholera toxin, 0.5 µg/mL hydrocortisone, and 20 ng/mL hEGF (all from Sigma-Aldrich). All culture media contained 100 µg/mL streptomycin (Sigma-Aldrich) and 100 U/mL penicillin (PolfaTarchomin SA, Warsaw, Poland). The cell lines were tested for mycoplasma contamination using Venor GeM Classic (Minerva Biolabs, Berlin, Germany) with negative results in all cases. Cell lines were cultured in a humidified atmosphere at 37 °C with 5% (v/v) CO2 and passaged twice a week using ethylenediaminetetraacetic acid (EDTA)-Trypsin solution (pH 8; HIIET, Wroclaw, Poland) as a detachment agent.
(§2) Antiproliferative activity assessment by sulforhodamine B assay. The cells were seeded on 384-well plates (Greiner Bio One, Kremsmünster, Austria) at a density of 1 × 10^3 cells/well and, after overnight attachment, were exposed to compounds at various concentrations (at least eight concentrations). After 72 h, the sulforhodamine B (SRB) assay based on Skehan et al. was performed with minor modifications. Briefly, cell were fixed with 20% (w/v) trichloroacetic acid (Avantor Performance Materials, Gliwice, Poland) for 1 h, washed several times with tap water, and stained with 20 µL of 0.1% (w/v) solution of sulforhodamine B (Sigma-Aldrich, Poznan, Poland) in 1% (v/v) acetic acid (Avantor Performance Materials, Gliwice, Poland). After 30 min of incubation at room temperature, the unbound dye was washed out with 1% (v/v) acetic acid, whereas the bound dye was solubilized with 70 µL of a 10 mM unbuffered tris(hydroxymethyl)aminomethane (TRIS; Avantor Performance Materials, Gliwice, Poland) solution. The entire procedure was performed using Biotek EL-406 washing station (BioTek Instruments, Winooski, VT, USA). Absorbance was read using a Biotek Hybrid H4 reader (BioTek Instruments, Winooski, VT, USA) at 540 nm wavelength. Proliferation inhibition (%Inh) was calculated using the following formula: %Inh = [((A_p − A_m)/(A_k − A_m)) × 100] − 100, where Am—absorbance of cell-free medium (blank), Ak—absorbance for vehicle-treated cells (control), Ap—absorbance for compound-treated cells. […] 10.5.0 (GraphPad Software Inc., San Diego, CA, USA) using the [inhibitor] vs. response—variable slope (four parameters) Hill’s equation, based on at least three biological, independent repeats.

[2] = test system: SK-MEL-3, Hs294T, KU-19-19, MCF-10A cell lines; experiment: Antiproliferative activity by sulforhodamine B assay, statements across the cell line panel; format: cell-based; conditions: for IC50 in SK-MEL-3 relative to the Hs294T cell line: SK-MEL-3 vs Hs294T, fold higher; for antiproliferative effects in words: up to a concentration of 100 µM
Protocol: as §1, §2
In view of the results obtained from studies on the inhibitory activity of boronate derivatives of thiosemicarbazones against tyrosinase, we decided to test their ability to inhibit the growth and proliferation of tumor lines that overexpress tyrosinase. For this purpose, we tested antiproliferative activity on selected cell lines. Initial antiproliferative screening was conducted using a tissue-agnostic approach on a select panel of cell lines. […]

[3] = test system: Hs-294T; experiment: Antiproliferative activity by sulforhodamine B assay, Hs-294T; format: cell-based; conditions: for pIC50: 72 h, SRB; for inhibition at 100 µM: read-out: proliferation inhibition at 100µM (reported if IC50 > 100 µM), 100 µM, 72 h, SRB
Protocol: as §1, §2

[4] = test system: SK-MEL-3; experiment: Antiproliferative activity by sulforhodamine B assay, SK-MEL-3; format: cell-based; conditions: SRB; for pIC50: SK-MEL-3, 72 h; for inhibition at 100 µM: SK-MEL3, read-out: proliferation inhibition at 100µM (reported if IC50 > 100 µM), SK-MEL-3, 100 µM, 72 h
Protocol: as §1, §2

[5] = test system: KU-19-19; experiment: Antiproliferative activity by sulforhodamine B assay, KU-19-19; format: cell-based; conditions: SRB; for pIC50: KU-19-19, 72 h; for inhibition at 100 µM: read-out: proliferation inhibition at 100µM (reported if IC50 > 100 µM), KU-19-19, 100 µM, 72 h
Protocol: as §1, §2

[6] = biological target: mushroom tyrosinase (Agaricus bisporus, UniProt C7FF04); experiment: Tyrosinase enzymatic assay (diphenolase activity, L-DOPA substrate, dopachrome at 475 nm); format: biochemical; conditions: para-substituted analogue vs carboxylic acid of ref 30
mushroom tyrosinase, sequence (C7FF04 2-392): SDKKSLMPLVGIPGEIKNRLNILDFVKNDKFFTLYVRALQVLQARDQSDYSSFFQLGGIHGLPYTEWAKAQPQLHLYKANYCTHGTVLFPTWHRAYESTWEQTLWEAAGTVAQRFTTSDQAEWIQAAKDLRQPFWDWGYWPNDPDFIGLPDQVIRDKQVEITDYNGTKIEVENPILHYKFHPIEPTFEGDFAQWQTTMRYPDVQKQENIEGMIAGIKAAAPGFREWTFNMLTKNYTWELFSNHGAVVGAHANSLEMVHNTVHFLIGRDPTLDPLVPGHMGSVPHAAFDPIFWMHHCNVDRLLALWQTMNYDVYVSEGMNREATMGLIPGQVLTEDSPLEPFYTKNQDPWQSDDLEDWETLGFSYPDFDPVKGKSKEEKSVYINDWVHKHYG
mushroom tyrosinase, sequence (G1K3P4 1-150 partner): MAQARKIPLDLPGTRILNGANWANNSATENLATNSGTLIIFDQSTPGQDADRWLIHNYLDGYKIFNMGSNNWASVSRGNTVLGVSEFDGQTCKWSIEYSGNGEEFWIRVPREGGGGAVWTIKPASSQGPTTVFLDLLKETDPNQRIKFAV

Row | Compound | inhibition at 100 µM ([1]; Homo sapiens) [%] | inhibition at 100 µM ([3]; Homo sapiens) [%] | inhibition at 100 µM ([4]; Homo sapiens) [%] | inhibition at 100 µM ([5]; Homo sapiens) [%] | pIC50 ([4]; Homo sapiens, SK-MEL3) | further results
1 | [NH2][Pt]([NH2])([Cl])[Cl] [CDDP, Cisplatin, reference compound] |  |  |  |  |  | pIC50 [1]: 5.52; IC50 in SK-MEL-3 relative to the Hs294T cell line [2]: 6.9 fold; pIC50 [3]: 5.66; pIC50 [4]: 4.82; pIC50 [5]: 5.35
2 | NC(=S)N1N=Cc2ccccc2B1O [Compound 1] | 42.7 | 55.4 | 43.4 | 21.4 |  | 
3 | NC(=S)NN=Cc1cccc(B(O)O)c1 [Compound 2] | 30.7 | 37.6 | 50.7 | 11.3 |  | 
4 | COc1cccc2c1C(=O)c1c(O)c3c(c(O)c1C2=O)C[C@@](O)(C(=O)CO)C[C@@H]3O[C@H]1C[C@H](N)[C@H](O)[C@H](C)O1 [Doxo, Doxorubicin hydrochloride, reference compound] |  |  |  |  | 7.80 | pIC50 ([1]; Homo sapiens): 9.29; IC50 in SK-MEL-3 relative to the Hs294T cell line [2]: 14.5 fold; pIC50 ([3]; Homo sapiens): 8.96; pIC50 ([5]; Homo sapiens): 8.80
5 | CC1=NN(C(N)=S)B(O)c2ccccc21 [Compound 4] |  |  |  |  | 4.16 | pIC50 ([1]; Homo sapiens): 4.26; pIC50 ([2]; all four cell lines, 72 h, SRB, read-out: IC50 values, range over the tested cell lines): 4.10 to 4.26; pIC50 ([3]; Homo sapiens): 4.10; pIC50 ([5]; Homo sapiens): 4.16
6 | C/C(=N\NC(N)=S)c1ccc(B(O)O)cc1 [Compound 6] | 32.8 | 13.9 | 37.3 | 9.5 |  | IC50 against tyrosinase compared with the corresponding carboxylic acid [6]: four times lower; antiproliferative effects in words [2]: minimal antiproliferative effects
7 | C/C(=N\NC(N)=S)c1cccc(B(O)O)c1 [Compound 5] | 37.1 | 35.9 |  | 26.8 | 4.25 | 
8 | NC(=S)N/N=C/c1ccc(B(O)O)cc1 [Compound 3] | 31.7 | 13.9 | 31.8 | 5.4 |  | antiproliferative effects in words [2]: minimal antiproliferative effects
